Laboratory results: the supplement of paper PMC10307832

What was measured:
Test in all cases: relative viability (nuclei count vs DMSO), 5 days (fraction); higher = more cells survive
201T = test system: 201T
Method in brief: (§1)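 Nuclei were stained with Hoechst during a one-step fixation (final 0.05% Triton X-100, 1% formaldehyde, 1 ug/ml Hoechst) carried out 5 days after dosing, then counted on 4× images. The cells, lung cancer lines in 1536-well plates, had been dosed by pin tool the day after seeding with one drug alone or a fixed anchor-drug dose plus five library-drug doses (not always all listed) in √10 steps. Relative viability is the nuclei count in treated wells divided by that in vehicle wells, and each value is the median of duplicate plates.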

BEN = test system: BEN
Method in brief: as §1

COR-L 105 = test system: COR-L 105
Method in brief: as §1

EKVX = test system: EKVX
Method in brief: as §1

EPLC-272H = test system: EPLC-272H
Method in brief: as §1

H3255 = test system: H3255
Method in brief: as §1

HCC-44 = test system: HCC-44
Method in brief: as §1

HCC-827 = test system: HCC-827
Method in brief: as §1

HOP-62 = test system: HOP-62
Method in brief: as §1

LCLC-97TM1 = test system: LCLC-97TM1
Method in brief: as §1

LOU-NH91 = test system: LOU-NH91
Method in brief: as §1

LU99A = test system: LU99A
Method in brief: as §1

NCI-H1395 = test system: NCI-H1395
Method in brief: as §1

NCI-H1437 = test system: NCI-H1437
Method in brief: as §1

NCI-H1666 = test system: NCI-H1666
Method in brief: as §1

NCI-H1975 = test system: NCI-H1975
Method in brief: as §1

NCI-H2085 = test system: NCI-H2085
Method in brief: as §1

NCI-H2087 = test system: NCI-H2087
Method in brief: as §1

NCI-H2342 = test system: NCI-H2342
Method in brief: as §1

NCI-H358 = test system: NCI-H358
Method in brief: as §1

NCI-H647 = test system: NCI-H647
Method in brief: as §1

PC-3 [JPC-3] = test system: PC-3 [JPC-3]
Method in brief: as §1

SW 1573 = test system: SW 1573
Method in brief: as §1

CC1(C)CCC(c2ccc(Cl)cc2)=C(CN2CCN(c3ccc(C(=O)NS(=O)(=O)c4ccc(N[C@H](CCN5CCOCC5)CSc5ccccc5)c(S(=O)(=O)C(F)(F)F)c4)cc3)CC2)C1 [Navitoclax] + N=C(N)NC(=N)NCCc1ccccc1 [Phenformin] (partner 250 µM) showed a relative viability (201T; first compound 0.005 µM) of 0.447, a relative viability (201T; first compound 0.01581 µM) of 0.458 and a relative viability (201T; first compound 0.05 µM) of 0.456. It also gave a relative viability (201T; first compound 0.1581 µM) of 0.438, a relative viability (201T; first compound 0.5 µM) of 0.492 and a relative viability (BEN; first compound 0.005 µM) of 0.246. The relative viability (BEN; first compound 0.01581 µM) was 0.265, the relative viability (BEN; first compound 0.05 µM) was 0.248 and the relative viability (BEN; first compound 0.1581 µM) was 0.294. The relative viability (BEN; first compound 0.5 µM) was 0.232, the relative viability (COR-L 105; first compound 0.005 µM) was 0.464 and the relative viability (COR-L 105; first compound 0.01581 µM) was 0.746. For the same compound, the relative viability (COR-L 105; first compound 0.05 µM) was 0.431, the relative viability (COR-L 105; first compound 0.1581 µM) was 0.503 and the relative viability (COR-L 105; first compound 0.5 µM) was 0.405. For the same compound, the relative viability (EKVX; first compound 0.005 µM) was 0.262, the relative viability (EKVX; first compound 0.01581 µM) was 0.238 and the relative viability (EKVX; first compound 0.05 µM) was 0.226. For the same compound, the relative viability (EKVX; first compound 0.1581 µM) was 0.239, the relative viability (EKVX; first compound 0.5 µM) was 0.235 and the relative viability (EPLC-272H; first compound 0.005 µM) was 0.376. The relative viability (EPLC-272H; first compound 0.05 µM) was 0.324, the relative viability (EPLC-272H; first compound 0.1581 µM) was 0.329 and the relative viability (EPLC-272H; first compound 0.5 µM) was 0.253. The relative viability (H3255; first compound 0.005 µM) was 0.338, the relative viability (H3255; first compound 0.01581 µM) was 0.399 and the relative viability (H3255; first compound 0.05 µM) was 0.376. The relative viability (H3255; first compound 0.1581 µM) was 0.39, the relative viability (H3255; first compound 0.5 µM) was 0.339 and the relative viability (HCC-44; first compound 0.005 µM) was 0.173. For the same compound, the relative viability (HCC-44; first compound 0.01581 µM) was 0.184, the relative viability (HCC-44; first compound 0.05 µM) was 0.185 and the relative viability (HCC-44; first compound 0.1581 µM) was 0.131. The relative viability (HCC-44; first compound 0.5 µM) was 0.197, the relative viability (HCC-827; first compound 0.005 µM) was 0.404 and the relative viability (HCC-827; first compound 0.01581 µM) was 0.434. The relative viability (HCC-827; first compound 0.05 µM) was 0.355, the relative viability (HCC-827; first compound 0.1581 µM) was 0.396 and the relative viability (HCC-827; first compound 0.5 µM) was 0.382. For the same compound, the relative viability (HOP-62; first compound 0.005 µM) was 0.639, the relative viability (HOP-62; first compound 0.01581 µM) was 0.673 and the relative viability (HOP-62; first compound 0.05 µM) was 0.65. It also gave a relative viability (HOP-62; first compound 0.1581 µM) of 0.669, a relative viability (HOP-62; first compound 0.5 µM) of 0.702 and a relative viability (LCLC-97TM1; first compound 0.005 µM) of 0.447. For the same compound, the relative viability (LCLC-97TM1; first compound 0.01581 µM) was 0.504, the relative viability (LCLC-97TM1; first compound 0.05 µM) was 0.403 and the relative viability (LCLC-97TM1; first compound 0.1581 µM) was 0.477. For the same compound, the relative viability (LCLC-97TM1; first compound 0.5 µM) was 0.507, the relative viability (LOU-NH91; first compound 0.005 µM) was 0.8 and the relative viability (LOU-NH91; first compound 0.01581 µM) was 0.693. The relative viability (LOU-NH91; first compound 0.05 µM) was 0.636, the relative viability (LOU-NH91; first compound 0.1581 µM) was 0.652 and the relative viability (LOU-NH91; first compound 0.5 µM) was 0.427. For the same compound, the relative viability (LU99A; first compound 0.005 µM) was 0.878, the relative viability (LU99A; first compound 0.01581 µM) was 0.993 and the relative viability (LU99A; first compound 0.05 µM) was 0.726. The relative viability (LU99A; first compound 0.1581 µM) was 0.829, the relative viability (LU99A; first compound 0.5 µM) was 0.928 and the relative viability (NCI-H1395; first compound 0.005 µM) was 0.461. For the same compound, the relative viability (NCI-H1395; first compound 0.01581 µM) was 0.501, the relative viability (NCI-H1395; first compound 0.05 µM) was 0.451 and the relative viability (NCI-H1395; first compound 0.1581 µM) was 0.455. For the same compound, the relative viability (NCI-H1395; first compound 0.5 µM) was 0.497, the relative viability (NCI-H1437; first compound 0.005 µM) was 0.269 and the relative viability (NCI-H1437; first compound 0.01581 µM) was 0.333. For the same compound, the relative viability (NCI-H1437; first compound 0.05 µM) was 0.334, the relative viability (NCI-H1437; first compound 0.1581 µM) was 0.314 and the relative viability (NCI-H1437; first compound 0.5 µM) was 0.41. The relative viability (NCI-H1666; first compound 0.005 µM) was 0.604, the relative viability (NCI-H1666; first compound 0.01581 µM) was 0.573 and the relative viability (NCI-H1666; first compound 0.05 µM) was 0.511. It also gave a relative viability (NCI-H1666; first compound 0.1581 µM) of 0.534, a relative viability (NCI-H1666; first compound 0.5 µM) of 0.559 and a relative viability (NCI-H1975; first compound 0.005 µM) of 0.427. For the same compound, the relative viability (NCI-H1975; first compound 0.01581 µM) was 0.428, the relative viability (NCI-H1975; first compound 0.05 µM) was 0.454 and the relative viability (NCI-H1975; first compound 0.1581 µM) was 0.414. It also gave a relative viability (NCI-H1975; first compound 0.5 µM) of 0.42, a relative viability (NCI-H2085; first compound 0.005 µM) of 0.732 and a relative viability (NCI-H2085; first compound 0.01581 µM) of 0.847. It also gave a relative viability (NCI-H2085; first compound 0.05 µM) of 0.593, a relative viability (NCI-H2085; first compound 0.1581 µM) of 0.746 and a relative viability (NCI-H2085; first compound 0.5 µM) of 0.786. The relative viability (NCI-H2087; first compound 0.005 µM) was 0.475, the relative viability (NCI-H2087; first compound 0.01581 µM) was 0.452 and the relative viability (NCI-H2087; first compound 0.1581 µM) was 0.407. For the same compound, the relative viability (NCI-H2087; first compound 0.5 µM) was 0.428, the relative viability (NCI-H2342; first compound 0.005 µM) was 0.602 and the relative viability (NCI-H2342; first compound 0.01581 µM) was 0.627. For the same compound, the relative viability (NCI-H2342; first compound 0.05 µM) was 0.486, the relative viability (NCI-H2342; first compound 0.1581 µM) was 0.599 and the relative viability (NCI-H2342; first compound 0.5 µM) was 0.624. The relative viability (NCI-H358; first compound 0.005 µM) was 0.362, the relative viability (NCI-H358; first compound 0.01581 µM) was 0.376 and the relative viability (NCI-H358; first compound 0.05 µM) was 0.357. It also gave a relative viability (NCI-H358; first compound 0.1581 µM) of 0.343, a relative viability (NCI-H358; first compound 0.5 µM) of 0.424 and a relative viability (NCI-H647; first compound 0.005 µM) of 0.536. The relative viability (NCI-H647; first compound 0.01581 µM) was 0.488, the relative viability (NCI-H647; first compound 0.05 µM) was 0.651 and the relative viability (NCI-H647; first compound 0.1581 µM) was 0.323. It also gave a relative viability (NCI-H647; first compound 0.5 µM) of 0.445, a relative viability (PC-3 [JPC-3]; first compound 0.005 µM) of 0.466 and a relative viability (PC-3 [JPC-3]; first compound 0.01581 µM) of 0.48. It also gave a relative viability (PC-3 [JPC-3]; first compound 0.05 µM) of 0.516, a relative viability (PC-3 [JPC-3]; first compound 0.1581 µM) of 0.453 and a relative viability (PC-3 [JPC-3]; first compound 0.5 µM) of 0.41. It also gave a relative viability (SW 1573; first compound 0.005 µM) of 0.437, a relative viability (SW 1573; first compound 0.01581 µM) of 0.503 and a relative viability (SW 1573; first compound 0.05 µM) of 0.358. For the same compound, the relative viability (SW 1573; first compound 0.1581 µM) was 0.414 and the relative viability (SW 1573; first compound 0.5 µM) was 0.406.
